# Results published in US9359298B2, “Cajanine structure analogous compound, preparation method and use” (INSTITUTE OF MEDICINAL BIOTECHNOLOGY, CHINESE ACADEMY OF …, priority 2011, dated 2016).
# Where two headings read alike, the source gives them in different places.
# Assays:
# Assay type in all cases: cell-based
# [1] = test system: Influenza A virus (hanfang359/95); experiment: Determination of anti-influenza virus activity (CPE in MDCK cells); conditions: for IC50: Influenza A virus, MDCK, 36 h; for anti-influenza virus activities compared with the lead compound cajanine: statement in words
# [2] = test system: Coxsackie virus B6; experiment: Coxsackie virus activity assay (CPE in Vero cells); conditions: Vero
# [3] = test system: HCV; experiment: Anti-hepatitis C virus (HCV) activity assay (HCV RNA in Huh7.5 cells); conditions: for EC50: Hepatitis C virus, Huh7.5, 72 h, read-out: HCV EC50; for anti-HCV viral activity: statement in words
# Description: Inoculate Huh7.5 cells into 96-well plates to a density of 3×10^4 cells/cm^2, culture for 24h, infect the cells with 45 IU/cell HCV supernatant, meanwhile, add drug solutions or solvent control for treatment.
# [4] = test system: HIV-1 III B virus; experiment: Anti-HIV activity assay (P24 antigen in MT-4 cells); conditions: for IC50: Human immunodeficiency virus 1, MT4, 96 h, read-out: HIV IC50; for anti-HIV viral activity: statement in words
# [5] = read-out: COX-B6 IC50, Vero cells, about 100TCID50, CPE, Reed-Muench
# [6] = Huh7.5 cells, 72 h, HCV RNA by RT-PCR, Reed-Muench
# [7] = MT-4 cells, HIV-1 III B 100TCID50, 96 h, P24 antigen
Compound,IC50 [1] [µg/mL],"IC50 [2, 5] [µg/mL]","EC50 [3, 6] [µg/mL]","IC50 [4, 7] [µg/mL]",anti-influenza virus activities compared with the lead compound cajanine [1],anti-HCV viral activity [3],anti-HIV viral activity [4],IC50 ([2]; read-out: COX-B6 IC50) [µg/mL],EC50 [3] [µg/mL],IC50 [4] [µg/mL]
COC(=O)c1c(/C=C/c2ccccc2)cc(OC)c(CC=C(C)C)c1OC(=O)C1CCCN1 (stereo not shown) [Compound 24d],0.12,0.45,0.87,0.81,,,,,,
"COc1cc(/C=C/c2ccccc2)cc(OC(=O)CN(C)C)c1CC=C(C)C [Compound 24o, 2-isopentenyl-3-(N,N-dimethylacetoxy)-5-[(E)-styryl]anisole]",2.31,1.21,1.34,0.69,,,,,,
"COc1cc(/C=C/c2ccccc2)cc(OC(=O)c2cccnc2)c1CC=C(C)C [Compound 24l, 2-isopentenyl-3-(pyridyl-3-formyloxy)-5-[(E)-styryl]anisole]",1.04,0.95,1.6,1.4,,,,,,
COc1cc(/C=C/c2ccccc2)cc(OC(=O)c2cnc[nH]2)c1CC=C(C)C [Compound 24r],0.98,0.68,1.05,2.31,,,,,,
COC(=O)c1c(/C=C/c2ccccc2)cc(OC)c(CC=C(C)C)c1OCN [Compound 26a],2.31,6.54,2.09,1.73,,,,,,
COc1cc(/C=C/c2ccccc2)cc(OC(=O)C2CCCN2)c1CC=C(C)C (stereo not shown) [Compound 24f],0.13,0.21,0.69,1.01,significantly stronger than the lead compound cajanine,,,,,
"COC(=O)c1c(/C=C/c2cc(OC)c(OC)c(OC)c2)cc(OC)c(CC=C(C)C)c1O [Compound 8u, methyl 2-hydroxy-3-isopentenyl-4-methoxy-6-[(E)-(3,4,5-trimethoxy-styryl)]benzoate]",0.11,1.65,0.67,1.49,,"stronger anti-HIV, HCV viral activities","stronger anti-HIV, HCV viral activities",,,
COC(=O)c1c(/C=C/c2ccccc2)cc(OC)c(CC=C(C)C)c1OC(=O)c1cnc[nH]1 [Compound 24p],1.32,2.36,0.77,0.31,,,,,,
"COc1cc(/C=C/c2ccccc2)cc(OC(=O)C(=O)O)c1CC=C(C)C [Compound 31c, 2-isopentenyl-3-carboxyformyloxy-5-[(E)-styryl]anisole]",0.08,0.67,0.77,0.29,significantly stronger than the lead compound cajanine,"stronger anti-HIV, HCV viral activities","stronger anti-HIV, HCV viral activities",,,
"COC(=O)c1c(/C=C/c2ccccn2)cc(OC)c(CC=C(C)C)c1O [Compound 8t, methyl 2-hydroxy-3-isopentenyl-4-methoxy-6-[(E)-2-(pyrid-2-yl)ethenyl]benzoate]",0.12,1.32,0.64,0.6,,"stronger anti-HIV, HCV viral activities","stronger anti-HIV, HCV viral activities",,,
"COC(=O)c1c(/C=C/c2cc(OC)ccn2)cc(OC)c(CC=C(C)C)c1O [Compound 8v, methyl 2-hydroxy-3-isopentenyl-4-methoxy-6-[(E)-2-(4-methoxypyrid-2-yl)ethenyl]benzoate]",0.87,2.68,2.39,1.01,,"stronger anti-HIV, HCV viral activities","stronger anti-HIV, HCV viral activities",,,
"COc1cc(/C=C/c2ccccc2)cc(OC(=N)N)c1CC=C(C)C [Compound 27c, 2-isopentenyl-3-isoureido-5-[(E)-styryl]anisole]",0.54,0.92,1.26,2.03,,,,,,
"COc1cc(/C=C/c2ccccc2)cc(OCN)c1CC=C(C)C [Compound 26c, 2-isopentenyl-3-aminomethoxy-5-[(E)-styryl]anisole]",1.35,2.64,2.07,3.18,,,,,,
"CCOC(=O)C1=C[C@@H](OC(CC)CC)[C@H](NC(C)=O)[C@@H](N)C1 [Oseltamivirphosphate, reference compound]",0.22,,,,,,,,,
"COC(=O)c1c(/C=C/c2ccccc2)cc(OC)c(CC=C(C)C)c1OC(=O)NN [Compound 29a, methyl 2-Hydrazinoformyloxy-3-isopentenyl-4-methoxy-6-[(E)-styryl]benzoate]",0.98,,,,,"stronger anti-HIV, HCV viral activities","stronger anti-HIV, HCV viral activities",1.36,0.51,0.43
"COC(=O)c1c(/C=C/c2ccccc2)cc(OC)c(CC=C(C)C)c1OC(=O)C(=O)O [Compound 31a, methyl 2-carboxyformylxy-3-isopentenyl-4-methoxy-6-[(E)-styryl]benzoate]",0.14,2.31,0.71,1.3,significantly stronger than the lead compound cajanine,,,,,
"NC(=O)c1ncn([C@@H]2O[C@H](CO)[C@@H](O)[C@H]2O)n1 [RBV, Ribavirin, reference compound]",0.59,412,,,,,,,,
"COC(=O)c1c(/C=C/c2ccccc2)cc(OC)c(CC=C(C)C)c1OC(=N)N [Compound 27a, 2-iso-ureido-3-isopentenyl-4-methoxy-6-[(E)-styryl]-benzoate]",1.32,2.34,1.34,2.48,,,,,,
"COC(=O)c1c(/C=C/c2ccccc2)cc(OC)c(CC=C(C)C)c1OC(C)=O [Compound 24g, methyl 2-acetoxy-3-isopentenyl-4-methoxy-6-[(E)-styryl]benzoate]",0.25,1.65,0.83,0.33,significantly stronger than the lead compound cajanine,,,,,
"COC(=O)c1c(/C=C/c2ccccc2)cc(OC)c(CC=C(C)C)c1OC(=O)c1cccnc1 [Compound 24j, 2-(pyridyl-3-formylox)-3-isopentenyl-4-methoxy-6-[(E)-styryl]-benzoate]",2.36,3.61,1.35,2.65,,,,,,
COc1cc(/C=C/c2ccccc2)cc(OC(C)=O)c1CC=C(C)C [Compound 24i],0.15,0.92,0.99,2.09,significantly stronger than the lead compound cajanine,,,,,
COC(=O)c1c(/C=C/c2ccccc2)cc(OC)c(CC=C(C)C)c1OC(=O)CN [Compound 24a],2.31,3.21,0.98,1.79,,,,,,
"COc1cc(/C=C/c2ccccc2)cc(OC(=O)NN)c1CC=C(C)C [Compound 29c, 2-isopentenyl-3-hydrazinoformylox-5-[(E)-styryl]anisole]",0.24,,,,significantly stronger than the lead compound cajanine,,,0.36,0.89,0.6
